In patent publication US20240116912A1, “COMPOUNDS AND METHODS FOR MODULATING FXR” (Terns Pharmaceuticals, Inc., priority 2020, published 2024) one finds EC50 data, which are given here for 24 compounds.

Where “and” joins values, the source holds several entries; their conditions need not be identical. Equal entries are not always repeated.

Assay [1] has as its target full length human FXR protein (Homo sapiens (Human), UniProt Q96RI1). As to the kind of experiment: FXR cellular assay (FXR-SRCP β-gal enzyme fragment complementation in CHO-K1 cells, chemiluminescence). The class given is cell-based. Conditions: CHO-K1 cells with SRCP-EA and ProLink-labeled FXR, 0-10 micromolar compound, 37° C. for 6h, read-out: EC50 FXR-cell Luminescence/. A digest of the protocol: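 CHO-K1 cells stably expressing ProLink-tagged full-length FXR and SRCP-EA treated with compound (0-10 micromolar, 1% DMSO) for 6 h at 37 °C. Ligand-driven FXR-coactivator binding reconstitutes β-gal; chemiluminescence read after 1 h detection reagent at room temperature.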

Assay [2] concerns the target ligand binding domain (LBD) of recombinant human FXR (Homo sapiens (Human), UniProt Q96RI1). As to the kind of experiment: FXR cell free coactivator (SRC-1) recruitment assay, TR-FRET. The settings on record: FXR LBD (amino acids 244-476) with labeled SRC-1 domain, 25° C. for 60 minutes, activity relative to CDCA maximum; read-out: EC50 FXR- Biochemical TR-FRET/μM. A digest of the protocol:
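Purified SF9-expressed FXR LBD (aa 244-476) was incubated with compounds (0-10 micromolar) and labeled SRC-1 interaction domain in TR-FRET coregulator buffer G, 60 min at 25° C, 1.2% DMSO. Activity at each concentration was taken as percent of maximal CDCA response to build dose-response curves.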
In general terms: In TR-FRET formats the signal depends on donor and acceptor labels being close together.

full length human FXR protein, sequence (Q96RI1 whole entry, the tested form may be a part): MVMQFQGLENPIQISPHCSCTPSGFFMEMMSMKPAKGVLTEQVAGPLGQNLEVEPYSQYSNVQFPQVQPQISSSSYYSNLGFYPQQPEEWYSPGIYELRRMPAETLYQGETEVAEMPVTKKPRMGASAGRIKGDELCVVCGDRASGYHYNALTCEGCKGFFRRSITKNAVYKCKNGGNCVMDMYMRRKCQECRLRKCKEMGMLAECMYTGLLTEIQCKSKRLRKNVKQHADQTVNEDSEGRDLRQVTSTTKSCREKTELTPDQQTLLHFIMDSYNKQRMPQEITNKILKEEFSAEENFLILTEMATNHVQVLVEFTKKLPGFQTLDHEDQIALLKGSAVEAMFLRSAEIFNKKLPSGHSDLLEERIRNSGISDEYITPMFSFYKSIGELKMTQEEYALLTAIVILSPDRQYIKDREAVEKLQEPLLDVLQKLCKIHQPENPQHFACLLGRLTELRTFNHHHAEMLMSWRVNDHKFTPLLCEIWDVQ
ligand binding domain (LBD) of recombinant human FXR, sequence (Q96RI1 254-486): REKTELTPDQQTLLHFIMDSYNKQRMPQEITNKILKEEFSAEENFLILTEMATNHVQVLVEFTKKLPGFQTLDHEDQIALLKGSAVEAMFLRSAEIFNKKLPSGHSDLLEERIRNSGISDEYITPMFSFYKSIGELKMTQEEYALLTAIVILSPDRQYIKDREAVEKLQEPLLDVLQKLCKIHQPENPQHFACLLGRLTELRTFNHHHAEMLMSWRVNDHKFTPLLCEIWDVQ
ligand binding domain (LBD) of recombinant human FXR, sequence (Q15788 whole entry partner, the tested form may be a part): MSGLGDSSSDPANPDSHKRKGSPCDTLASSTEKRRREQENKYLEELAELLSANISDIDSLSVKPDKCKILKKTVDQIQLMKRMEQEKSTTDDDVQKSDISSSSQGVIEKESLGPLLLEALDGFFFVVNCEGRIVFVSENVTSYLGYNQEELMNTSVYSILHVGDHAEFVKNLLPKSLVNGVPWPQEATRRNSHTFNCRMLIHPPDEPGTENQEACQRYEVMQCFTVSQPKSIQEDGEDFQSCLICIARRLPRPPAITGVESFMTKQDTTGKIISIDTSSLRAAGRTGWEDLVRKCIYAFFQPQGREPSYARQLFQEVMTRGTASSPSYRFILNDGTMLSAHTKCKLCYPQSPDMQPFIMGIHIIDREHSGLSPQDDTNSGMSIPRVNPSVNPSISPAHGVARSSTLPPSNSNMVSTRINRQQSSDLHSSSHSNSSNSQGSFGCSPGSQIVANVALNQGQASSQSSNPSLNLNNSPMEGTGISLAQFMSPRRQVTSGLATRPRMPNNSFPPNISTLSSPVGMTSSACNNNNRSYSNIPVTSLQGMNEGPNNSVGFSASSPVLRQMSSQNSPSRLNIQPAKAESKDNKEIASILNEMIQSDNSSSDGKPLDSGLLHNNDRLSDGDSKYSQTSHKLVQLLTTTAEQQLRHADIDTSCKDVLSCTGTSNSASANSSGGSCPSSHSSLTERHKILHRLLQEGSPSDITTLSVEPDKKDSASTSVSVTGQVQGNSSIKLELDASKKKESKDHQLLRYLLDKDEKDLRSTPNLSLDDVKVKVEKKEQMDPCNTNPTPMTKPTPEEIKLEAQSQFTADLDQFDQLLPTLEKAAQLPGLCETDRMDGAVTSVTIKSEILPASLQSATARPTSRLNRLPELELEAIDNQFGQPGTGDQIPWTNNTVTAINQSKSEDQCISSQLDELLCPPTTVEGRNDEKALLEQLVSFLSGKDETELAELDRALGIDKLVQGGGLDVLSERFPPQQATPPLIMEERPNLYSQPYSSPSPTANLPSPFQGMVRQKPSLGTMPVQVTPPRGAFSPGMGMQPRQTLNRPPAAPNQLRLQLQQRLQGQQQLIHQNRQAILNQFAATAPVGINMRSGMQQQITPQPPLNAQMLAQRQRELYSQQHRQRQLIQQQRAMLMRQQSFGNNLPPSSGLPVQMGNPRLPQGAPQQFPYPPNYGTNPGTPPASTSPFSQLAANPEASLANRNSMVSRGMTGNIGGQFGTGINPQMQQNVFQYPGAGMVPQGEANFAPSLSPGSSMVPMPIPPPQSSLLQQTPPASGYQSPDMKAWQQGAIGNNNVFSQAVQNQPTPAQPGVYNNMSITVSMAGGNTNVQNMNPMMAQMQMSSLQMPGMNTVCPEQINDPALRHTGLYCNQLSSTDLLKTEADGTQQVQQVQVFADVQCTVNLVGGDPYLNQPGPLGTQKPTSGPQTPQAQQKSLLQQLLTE

`COc1cccc(F)c1-c1noc(C2CC2)c1COC1CCN(c2ccc(-c3noc(=O)[nH]3)cc2)CC1` [Example 28, 3-(4-(4-((5-cyclopropyl-3-(2-fluoro-6-methoxyphenyl)isoxazol-4-yl)methoxy)piperidin-1-yl)phenyl)-1,2,4-oxadiazol-5(4H)-one]: the EC50 in assay [1] amounted to 1610 nM; in assay [2], 0.149 µM.
Turning to `O=c1[nH]c(-c2csc(N3CCC(OCc4c(-c5c(Cl)cccc5Cl)noc4C4CC4)CC3)c2)no1` [Example 38, 3-(5-(4-((5-cyclopropyl-3-(2,6-dichlorophenyl)isoxazol-4-yl)methoxy)piperidin-1-yl)thiophen-3-yl)-1,2,4-oxadiazol-5(4H)-one], the EC50 was found to be 263 nM in assay [1] and 0.0286 µM in assay [2].
As for `O=c1[nH]c(-c2ccc(N3CCCC(OCc4c(-c5c(Cl)cccc5Cl)noc4C4CC4)CC3)cc2)no1` (stereo not drawn) [Example 18, 3-(4-(4-((5-cyclopropyl-3-(2,6-dichlorophenyl)isoxazol-4-yl)methoxy)azepan-1-yl)phenyl)-1,2,4-oxadiazol-5(4H)-one], the EC50 in assay [1] is 18.4 nM; in assay [2] it was 0.0029 µM.
Consider `O=c1[nH]nc(-c2ccc(N3CCC(OCc4c(-c5ccccc5OC(F)(F)F)noc4C4CC4)CC3)cc2)c(=O)[nH]1` [Example 57, 6-(4-(4-((5-cyclopropyl-3-(2-(trifluoromethoxy)phenyl)isoxazol-4-yl)methoxy)piperidin-1-yl)phenyl)-1,2,4-triazine-3,5(2H,4H)-dione], for which the EC50 turned out to be 497 nM in assay [1] and 0.0847 µM in assay [2].
For the compound `O=c1[nH]c(-c2ccc(N3CC(OCc4c(-c5c(Cl)cccc5Cl)noc4C4CC4)C3)cc2)no1` [Example 19, 3-(4-(3-((5-cyclopropyl-3-(2,6-dichlorophenyl)isoxazol-4-yl)methoxy)azetidin-1-yl)phenyl)-1,2,4-oxadiazol-5(4H)-one], the EC50 came out at 840 nM in assay [1] and 0.122 µM in assay [2].
For the compound `O=c1[nH]c(-c2ccc(N3CCC(OCc4c(-c5c(Cl)cccc5Cl)noc4C4CC4)CC3)cc2)no1` [Example 3, 3-(4-(4-((5-cyclopropyl-3-(2,6-dichlorophenyl)isoxazol-4-yl)methoxy)piperidin-1-yl)phenyl)-1,2,4-oxadiazol-5(4H)-one], the EC50 in assay [1] was 97 nM and 49.8 nM; in assay [2] it was 0.0036 µM and 0.0029 µM.
As for `O=c1[nH]c(-c2ccc(N3CCC(OCc4c(-c5c(F)cccc5F)noc4C4CC4)C(F)(F)C3)cc2)no1` (stereo not drawn) [Example 55, 3-(4-(4-((5-cyclopropyl-3-(2,6-difluorophenyl)isoxazol-4-yl)methoxy)-3,3-difluoropiperidin-1-yl)phenyl)-1,2,4-oxadiazol-5(4H)-one], the EC50 in assay [1] was determined as 852 nM; in assay [2], 0.174 µM.
For the compound `O=c1[nH]c(-c2ccc(N3CCCC(OCc4c(-c5ccccc5OC(F)(F)F)noc4C4CC4)CC3)cc2)no1` (stereo not drawn) [Example 47, 3-(4-(4-((5-cyclopropyl-3-(2-(trifluoromethoxy)phenyl)isoxazol-4-yl)methoxy)azepan-1-yl)phenyl)-1,2,4-oxadiazol-5(4H)-one], the results for the EC50 in assay [1] and in assay [2] were 76.7 nM and 0.0037 µM, respectively.
For `C[C@@H]1C[C@H](OCc2c(-c3ccccc3Cl)noc2C2CC2)CCN1c1ccc(-c2noc(=O)[nH]2)cn1` [Example 72, 3-(6-((2R,4R)-4-((3-(2-chlorophenyl)-5-cyclopropylisoxazol-4-yl)methoxy)-2-methylpiperidin-1-yl)pyridin-3-yl)-1,2,4-oxadiazol-5(4H)-one], in that order: 54.9 nM and 0.0045 µM.
For `C[C@H]1CN(c2ccc(-c3noc(=O)[nH]3)cc2)CC[C@H]1OCc1c(-c2c(Cl)cccc2Cl)noc1C1CC1` [Example 32, 3-(4-((3S,4R)-4-((5-cyclopropyl-3-(2,6-dichlorophenyl)isoxazol-4-yl)methoxy)-3-methylpiperidin-1-yl)phenyl)-1,2,4-oxadiazol-5(4H)-one], in that order: 195 nM and 0.0126 µM.
`Cc1cc(N2CCC(OCc3c(-c4c(Cl)cccc4Cl)noc3C3CC3)CC2)ccc1-c1noc(=O)[nH]1` [Example 11, 3-(4-(4-((5-cyclopropyl-3-(2,6-dichlorophenyl)isoxazol-4-yl)methoxy)piperidin-1-yl)-2-methylphenyl)-1,2,4-oxadiazol-5(4H)-one]: the EC50 in assay [1] was 280 nM; in assay [2], 0.0219 µM.
As for `O=c1cnn(-c2ccc(N3CCC(OCc4c(-c5c(Cl)cccc5Cl)noc4C4CC4)CC3)cc2)c(=O)[nH]1` [Example 17, 2-(4-(4-((5-cyclopropyl-3-(2,6-dichlorophenyl)isoxazol-4-yl)methoxy)piperidin-1-yl)phenyl)-1,2,4-triazine-3,5(2H,4H)-dione], the EC50 was 4730 nM in assay [1] and 6.07 µM in assay [2].
For `C[C@H]1CN(c2ccc(-c3noc(=O)[nH]3)cc2)CC[C@@H]1OCc1c(-c2c(Cl)cccc2Cl)noc1C1CC1` [Example 33, 3-(4-((3S,4S)-4-((5-cyclopropyl-3-(2,6-dichlorophenyl)isoxazol-4-yl)methoxy)-3-methylpiperidin-1-yl)phenyl)-1,2,4-oxadiazol-5(4H)-one], in that order: 702 nM and 0.142 µM.
Turning to `O=c1[nH]nc(-c2ccc(N3CCC(OCc4c(-c5c(Cl)cccc5Cl)noc4C4CC4)CC3)cn2)o1` [Example 40, 5-(5-(4-((5-cyclopropyl-3-(2,6-dichlorophenyl)isoxazol-4-yl)methoxy)piperidin-1-yl)pyridin-2-yl)-1,3,4-oxadiazol-2(3H)-one], the EC50 in assay [1] came to 341 nM; in assay [2] it was 0.076 µM.
With `O=c1[nH]c(-c2ccc(N3CCC(OCc4c(-c5c(F)cccc5F)noc4C4CC4)C(F)(F)C3)nc2)no1` (stereo not drawn) [Example 63, 3-(6-(4-((5-cyclopropyl-3-(2,6-difluorophenyl)isoxazol-4-yl)methoxy)-3,3-difluoropiperidin-1-yl)pyridin-3-yl)-1,2,4-oxadiazol-5(4H)-one], the values for the EC50 in assay [1] and in assay [2] were 2660 nM and 0.215 µM, respectively.
For `O=c1[nH]c(-c2ccc(N3CCC(OCc4c(-c5c(Cl)cccc5Cl)noc4C4CC4)CC3)c(F)c2)no1` [Example 39, 3-(4-(4-((5-cyclopropyl-3-(2,6-dichlorophenyl)isoxazol-4-yl)methoxy)piperidin-1-yl)-3-fluorophenyl)-1,2,4-oxadiazol-5(4H)-one], the results for the EC50 in assay [1] and in assay [2] were 154 nM and 0.0161 µM, respectively.
Turning to `O=c1[nH]c(-c2ncc(N3CCC(OCc4c(-c5c(Cl)cccc5Cl)noc4C4CC4)CC3)s2)no1` [Example 56, 3-(5-(4-((5-cyclopropyl-3-(2,6-dichlorophenyl)isoxazol-4-yl)methoxy)piperidin-1-yl)thiazol-2-yl)-1,2,4-oxadiazol-5(4H)-one], the EC50 was 887 nM in assay [1] and 0.0431 µM in assay [2].
For the compound `O=c1[nH]c(-c2cnc(N3CCC(OCc4c(-c5c(Cl)cccc5Cl)noc4C4CC4)CC3)nc2)no1` [Example 5, 3-(2-(4-((5-cyclopropyl-3-(2,6-dichlorophenyl)isoxazol-4-yl)methoxy)piperidin-1-yl)pyrimidin-5-yl)-1,2,4-oxadiazol-5(4H)-one], the EC50 in assay [1] was found to be 2530 nM; in assay [2], 0.031 µM.
For `O=c1[nH]c(-c2ccc(N3[C@@H]4CC[C@H]3C[C@@H](OCc3c(-c5ccccc5OC(F)(F)F)noc3C3CC3)C4)nc2)no1` [Example 66, 3-(6-((1R,3r,5S)-3-((5-cyclopropyl-3-(2-(trifluoromethoxy)phenyl)isoxazol-4-yl)methoxy)-8-azabicyclo[3.2.1]octan-8-yl)pyridin-3-yl)-1,2,4-oxadiazol-5(4H)-one], in that order: 247 nM and 0.003 µM.
With `O=c1cc(-c2ccc(N3CCC(OCc4c(-c5c(Cl)cccc5Cl)noc4C4CC4)CC3)cc2)o[nH]1` [Example 16, 5-(4-(4-((5-cyclopropyl-3-(2,6-dichlorophenyl)isoxazol-4-yl)methoxy)piperidin-1-yl)phenyl)isoxazol-3(2H)-one], the EC50 was 195 nM in assay [1] and 0.024 µM in assay [2].
Consider `O=c1[nH]c(-c2ccc(N3CCC(OCc4c(-c5c(Cl)cccc5Cl)noc4C4CC4)CC3)nc2)no1` [Example 6, 3-(6-(4-((5-cyclopropyl-3-(2,6-dichlorophenyl)isoxazol-4-yl)methoxy)piperidin-1-yl)pyridin-3-yl)-1,2,4-oxadiazol-5(4H)-one], for which the EC50 in assay [1] was 372 nM; in assay [2], 0.0044 µM.
For `O=c1[nH]c(-c2cc(N3CCC(OCc4c(-c5c(Cl)cccc5Cl)noc4C4CC4)CC3)cs2)no1` [Example 30, 3-(4-(4-((5-cyclopropyl-3-(2,6-dichlorophenyl)isoxazol-4-yl)methoxy)piperidin-1-yl)thiophen-2-yl)-1,2,4-oxadiazol-5(4H)-one], in that order: 3620 nM and 0.296 µM.
`O=c1cn[nH]c(=O)n1-c1ccc(N2CCC(OCc3c(-c4c(Cl)cccc4Cl)noc3C3CC3)CC2)nc1` [Example 4, 4-(6-(4-((5-cyclopropyl-3-(2,6-dichlorophenyl)isoxazol-4-yl)methoxy)piperidin-1-yl)pyridin-3-yl)-1,2,4-triazine-3,5(2H,4H)-dione]: the EC50 came out at 1470 nM in assay [1] and 0.22 µM in assay [2].
As to `C[C@@H]1C[C@H](OCc2c(-c3c(Cl)cccc3Cl)noc2C2CC2)CCN1c1ccc(-c2noc(=O)[nH]2)cc1` [Example 23, 3-(4-((2R,4R)-4-((5-cyclopropyl-3-(2,6-dichlorophenyl)isoxazol-4-yl)methoxy)-2-methylpiperidin-1-yl)phenyl)-1,2,4-oxadiazol-5(4H)-one], the EC50 was 27.7 nM in assay [1] and 0.0031 µM in assay [2].
